Laboratory results published in US20230063538A1, “LARGE SCALE PROCESS” (GALECTO BIOTECH AB, priority 2019, published 2023).

Assay: Solid-state characterisation of polymorphic Form 1 (hygroscopicity)
Assay type: physicochemical
Conditions: crystalline polymorphic Form 1 of the compound of formula (I)

- hygroscopicity: not hygroscopic
Structure (SMILES): OC[C@H]1O[C@H](Sc2cncc(Br)c2)[C@H](O)[C@@H](n2cc(-c3cc(F)c(F)c(F)c3)nn2)[C@H]1O [Form 1, 5-Bromopyridin-3-yl 3-deoxy-3-[4-(3,4,5-trifluorophenyl)-1H-1,2,3-triazol-1-yl]-1-thio-α-D-galactopyranoside]
